In ChEMBL document CHEMBL1201862, “PubChem BioAssay data set” (2004):
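Method: 48-hour compound exposure of cells in 96-well plates, five concentrations, linear interpolation of endpoints. The concentration for 50% growth inhibition is given as GI50.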 Active and inactive are the calls of the source. Cut-off read from the data, not from the text of the source: active = GI50 up to about 1.1 µM and inactive = higher.

Tests used:
Test in all cases: growth of human tumour cells (NCI), 48 h
[1] = system: M14
[2] = system: HL-60
[3] = system: DMS-273
[4] = system: OVCAR-4
[5] = system: DMS-114
[6] = system: A549
[7] = system: HCT-15
[8] = system: 786-0
[9] = system: RXF 631
[10] = system: CCRF-CEM
[11] = system: OVCAR-3
[12] = system: UO-31
[13] = system: KM12
[14] = system: LXFL 529
[15] = system: RXF 393
[16] = system: SR
[17] = system: EKVX
[18] = system: HT-29
[19] = system: COLO 205
[20] = system: SF-295
[21] = system: KM-20L2
[22] = system: OVCAR-5
[23] = system: SF-539
[24] = system: RPMI-8226
[25] = system: Malme-3M
[26] = system: HOP-18
[27] = system: SK-MEL-2
[28] = system: XF498
[29] = system: NCI-H460
[30] = system: SK-MEL-28
[31] = system: NCI-H522
[32] = system: TK-10
[33] = system: HCC 2998
[34] = system: MOLT-4
[35] = system: SW-620
[36] = system: UACC-62
[37] = system: A498
[38] = system: SNB-78
[39] = system: ACHN
[40] = system: M19-MEL
[41] = system: DLD-1
[42] = system: SNB-19
[43] = system: NCI-H226
[44] = system: CAKI-1
[45] = system: NCI-H23
[46] = system: K562
[47] = system: SK-OV-3
[48] = system: U-251
[49] = system: UACC-257
[50] = system: SF-268
[51] = system: IGROV-1
[52] = system: SK-MEL-5
[53] = system: LOX IMVI
[54] = system: HOP-62
[55] = system: OVCAR-8
[56] = system: HOP-92
[57] = system: HCT-116
[58] = system: SN12C
[59] = system: SNB-75

O=C1C(Cl)=C(Cl)C(=O)N1c1cccc(C(F)(F)F)c1
GI50 [1]: > 100 µM (inactive)
GI50 [2]: > 100 µM (inactive)
GI50 [3]: > 100 µM (inactive)
GI50 [4]: > 100 µM (inactive)
GI50 [5]: > 100 µM (inactive)
GI50 [6]: > 100 µM (inactive)
GI50 [7]: > 100 µM
GI50 [8]: > 100 µM (inactive)
GI50 [9]: > 100 µM (inactive)
GI50 [10]: > 51.9 µM (inactive)
GI50 [11]: > 100 µM (inactive)
GI50 [12]: > 100 µM (inactive)
GI50 [13]: > 100 µM (inactive)
GI50 [14]: > 100 µM (inactive)
GI50 [15]: 34 µM (inactive)
GI50 [16]: 35.9 µM (inactive)
GI50 [17]: > 100 µM (inactive)
GI50 [18]: > 100 µM (inactive)
GI50 [19]: > 79.3 µM (inactive)
GI50 [20]: > 100 µM (inactive)
GI50 [21]: > 100 µM (inactive)
GI50 [22]: > 100 µM (inactive)
GI50 [23]: > 100 µM (inactive)
GI50 [24]: > 65.6 µM (inactive)
GI50 [25]: > 100 µM (inactive)
GI50 [26]: > 100 µM (inactive)
GI50 [27]: > 100 µM (inactive)
GI50 [28]: 3.77 µM (inactive)
GI50 [29]: > 100 µM (inactive)
GI50 [30]: > 100 µM (inactive)
GI50 [31]: 12.1 µM (inactive)
GI50 [32]: > 100 µM (inactive)
GI50 [33]: > 100 µM (inactive)
GI50 [34]: 51.4 µM (inactive)
GI50 [35]: > 100 µM (inactive)
GI50 [36]: > 100 µM (inactive)
GI50 [37]: > 100 µM (inactive)
GI50 [38]: > 100 µM (inactive)
GI50 [39]: > 100 µM (inactive)
GI50 [40]: > 100 µM (inactive)
GI50 [41]: > 93.3 µM (inactive)
GI50 [42]: > 100 µM (inactive)
GI50 [43]: > 100 µM (inactive)
GI50 [44]: > 61.9 µM (inactive)
GI50 [45]: > 100 µM (inactive)
GI50 [46]: > 54.5 µM (inactive)
GI50 [47]: > 100 µM (inactive)
GI50 [48]: > 100 µM (inactive)
GI50 [49]: > 100 µM (inactive)
GI50 [50]: > 100 µM (inactive)
GI50 [51]: > 100 µM (inactive)
GI50 [52]: > 100 µM (inactive)
GI50 [53]: > 100 µM (inactive)
GI50 [54]: > 100 µM (inactive)
GI50 [55]: > 100 µM (inactive)
GI50 [56]: > 100 µM (inactive)
GI50 [57]: > 100 µM (inactive)
GI50 [58]: > 100 µM (inactive)
GI50 [59]: > 100 µM (inactive)

COC1C2c3cc4c(cc3CC(C#N)(c3ccccc32)N1C(=O)c1ccccc1)OCO4 (stereo not drawn)
GI50 [1]: > 100 µM (inactive)
GI50 [2]: > 100 µM (inactive)
GI50 [3]: > 100 µM (inactive)
GI50 [5]: 70.6 µM (inactive)
GI50 [7]: > 100 µM
GI50 [8]: > 100 µM (inactive)
GI50 [9]: > 100 µM (inactive)
GI50 [10]: > 100 µM (inactive)
GI50 [11]: > 100 µM (inactive)
GI50 [12]: 78.3 µM (inactive)
GI50 [13]: > 100 µM (inactive)
GI50 [14]: > 100 µM (inactive)
GI50 [15]: 32.2 µM (inactive)
GI50 [16]: 54.7 µM (inactive)
GI50 [17]: > 100 µM (inactive)
GI50 [18]: > 100 µM (inactive)
GI50 [19]: > 100 µM (inactive)
GI50 [20]: > 100 µM (inactive)
GI50 [21]: > 100 µM (inactive)
GI50 [22]: > 100 µM (inactive)
GI50 [23]: > 100 µM (inactive)
GI50 [24]: 21 µM (inactive)
GI50 [25]: > 100 µM (inactive)
GI50 [26]: > 100 µM (inactive)
GI50 [27]: > 100 µM (inactive)
GI50 [28]: > 100 µM (inactive)
GI50 [29]: > 100 µM (inactive)
GI50 [30]: > 100 µM (inactive)
GI50 [31]: 87.3 µM (inactive)
GI50 [32]: > 100 µM (inactive)
GI50 [33]: > 100 µM (inactive)
GI50 [34]: 97.5 µM (inactive)
GI50 [35]: > 100 µM (inactive)
GI50 [36]: 4.94 µM (inactive)
GI50 [38]: > 100 µM (inactive)
GI50 [39]: > 100 µM (inactive)
GI50 [41]: > 100 µM (inactive)
GI50 [42]: > 100 µM (inactive)
GI50 [43]: 93.3 µM (inactive)
GI50 [45]: > 100 µM (inactive)
GI50 [46]: 54.6 µM (inactive)
GI50 [47]: > 100 µM (inactive)
GI50 [48]: > 100 µM (inactive)
GI50 [49]: > 100 µM (inactive)
GI50 [50]: > 100 µM (inactive)
GI50 [51]: > 100 µM (inactive)
GI50 [52]: 33 µM (inactive)
GI50 [53]: > 100 µM (inactive)
GI50 [54]: 48 µM (inactive)
GI50 [55]: > 100 µM (inactive)
GI50 [56]: > 100 µM (inactive)
GI50 [57]: > 100 µM (inactive)
GI50 [58]: > 100 µM (inactive)
GI50 [59]: > 100 µM (inactive)
